Assay results: US6703386B2, “Diphenylazetidinone derivatives, process for their preparation, medicaments comprising these compounds and their use” (Aventis Pharma Deutschland GmbH, priority 2000, dated 2004)

Columns and labels:
[1] = test system: cholesterol absorption (uptake of ^14C-cholesterol by the liver); assay: Cholesterol absorption test: uptake of 14C-cholesterol by the liver after peroral test meal; assay type: in vivo, NMRI mice; conditions: dose at which uptake of 14C-cholesterol by the liver is halved vs control group, mouse
Description: Effect on Cholesterol Absorption+^3H-taurocholic Acid Excretion Using Fecal Excrement of Mice, Rats or Hamsters
NMRI mice, Wistar rats, or Golden Syrian hamsters (in groups of n=4-6) are kept in metabolic cages, where they are fed with a standard diet (Altromin, Lage (Lippe)). The afternoon prior to the administration of the radioactive tracers (^14C-cholesterol), the feed is removed and the animals are adapted to grates.
Additionally, the animals are labeled s.c. with ^3H-TCA (taurocholic acid) (for example 1 μCi/mouse up to 5 μCi/rat) 24 hours prior to the peroral administration of the test meal (^14C-cholesterol in Intralipid® 20, Pharmacia-Upjohn).
Cholesterol absorption test: 0.25 ml/mouse Intralipid® 20 (Pharmacia-Upjohn) ((spiked with 0.25 μCi of ^14C-cholesterol in 0.1 mg of cholesterol) is administered perorally by gavage.
Test substances are prepared separately in 0.5% methylcellulose (Sigma)/5% Solutol (BASF, Ludwigshafen) or a suitable vehicle.
The administration volume of the test substance is 0.5 ml/mouse. The test substance is administered immediately prior to the test meal (Intralipid labeled with ^14C-cholesterol) (cholesterol absorption test).
The feces are collected over a period of 24 h: fecal elimination of ^14C-cholesterol and ^3H-taurocholic acid (TCA) is determined after 24 hours.
The livers are removed and homogenized, and aliquots are incinerated in an oximate (Model 307, Packard) to determine the amount of ^14C-cholesterol which had been taken up/absorbed.
The amount of ^14C-cholesterol taken up by the liver is based on the administered dose. The ED50 values are interpolated from a dose-effect curve as the dose at which the uptake of ^14C-cholesterol by the liver is halved (50%), based on a control group.

Caco-2 cell monolayers = assay: Bioabsorption in the Caco cell model (Hilgers et al.); assay type: in vitro ADME; conditions: estimated from Caco cell model
Description: The bioabsorption of the compounds of the formula I can be examined using the Caco cell model (A. R. Hilgers et al., Caco-2 cell monolayers as a model for drug transport across the intestinal mucosa, Pharm. Res. 1990, 7, 902).
Below is a bioabsorption measurement for a reference compound

Row | Compound | ED50 (liver) [1] | Estimated human bioabsorption (Caco-2 cell monolayers)
1 | O=C(COCCOCCOCC(=O)Nc1ccccc1C(Nc1ccccn1)C(c1ccccn1)C(O)c1ccccc1)NCc1cccc(C2C(CCC(O)c3ccc(F)cc3)C(=O)N2c2ccc(F)cc2)c1.O=C(O)C(F)(F)F (stereo not shown) [XVIII, (1-{2-[2-(2-{2-[(3-{1-(4-Fluorophenyl)-3-[3-(4-fluorophenyl)-3-hydroxypropyl]-4-oxoazetidin-2-yl}benzylcarbamoyl)methoxy]ethoxy}ethoxy)acetylamino]phenyl}-3-hydroxy-3-phenyl-2-pyridin-2-ylpropyl)pyridin-2-ylammonium trifluoroacetate] | 0.3 mg/mouse | –
2 | O=C(COCCOCC(=O)Nc1ccccc1C(Nc1ccccn1)C(c1ccccn1)C(O)c1ccccc1)NCc1ccc(C2C(CCC(O)c3ccc(F)cc3)C(=O)N2c2ccc(F)cc2)cc1.O=C(O)C(F)(F)F (stereo not shown) [XIX, {1-[2-(2-{2-[(4-{1-(4-Fluorophenyl)-3-[3-(4-fluorophenyl)-3-hydroxypropyl]-4-oxoazetidin-2-yl}benzylcarbamoyl)methoxy]ethoxy}acetylamino)phenyl]-3-hydroxy-3-phenyl-2-pyridin-2-ylpropyl}pyridin-2-ylammonium trifluoroacetate] | 0.1 mg/mouse | –
3 | O=C(CCCCCCCCCCC(=O)Nc1ccccc1C(Nc1ccccn1)C(c1ccccn1)C(O)c1ccccc1)NCc1cccc(C2C(CCC(O)c3ccc(F)cc3)C(=O)N2c2ccc(F)cc2)c1.O=C(O)C(F)(F)F (stereo not shown) [XVI, (1-{2-[11-(3-{1-(4-Fluorophenyl)-3-[3-(4-fluorophenyl)-3-hydroxypropyl]-4-oxoazetidin-2-yl}benzylcarbamoyl)undecanoylamino]phenyl}-3-hydroxy-3-phenyl-2-pyridin-2-ylpropyl)pyridin-2-yl ammonium trifluoroacetate] | 0.03 mg/mouse | –
4 | O=C1[C@H](CC[C@H](O)c2ccc(F)cc2)[C@@H](c2ccc(O)cc2)N1c1ccc(F)cc1 [Ezetimibe] | – | 100%
